For 21 compounds, IC50 results are on record in patent EP4043466B1, “PRC2 INHIBITORS” (Mirati Therapeutics, Inc., priority 2018, dated 2019).

Each structure is given as a SMILES string.

For assay [1], the target named is purified human, His-tagged PRC2 complex (Homo sapiens, UniProt O75530+Q15910). Nature of the assay: Hot Spot HMT assay: inhibition of PRC2 enzymatic activity (transfer of tritiated methyl from SAM to core histone, filter binding). It counts as biochemical. To be noted: Inhibition of PRC2-mediated enzymatic activity; 10 nM PRC2 complex, 0.05 mg/ml core histone H3, 1 uM 3H-SAM, 1 hr at 30°C. In short, it runs like this:
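Five-subunit complex (His-EZH2, Flag-EED, His-SUZ12, His-AEBP2, His-RbAp48) at 10 nM with 0.05 mg/ml core histone H3, pH 8 Tris buffer, 1% DMSO; 20 min compound pre-incubation at 30°C. Started with 1 uM [3H]-SAM, 1 hr at 30°C; tritiated H3 counted by scintillation. Compounds diluted from 1.0 µM top concentration.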

Assay [2] has as its system Karpas 422 cells. As to the kind of experiment: Karpas 422 cell viability, CTG (Cell Titre Glo) assay. The conditions noted are these: Inhibition of proliferation of Karpas 422 cells (EZH2 Y641N), viability measured Day 4, Day 7 or Day 11, time point of the tabulated values not stated. It counts as cell-based, human. The method in brief:
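Karpas 422 cells (EZH2 Y641N, DLBCL) plated at 1000 cells/well in RPMI with 20% FBS, exposed to compound 10µM down to 1.5nM in 3-fold steps at 37 °C. Viability by CellTiter-Glo on Days 4, 7 and 11; Day 11 plates re-fed with fresh medium and compound on Day 7. IC50 per time point.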

Assay [3] deals with PRC2-mediated histone H3 methylation. As to the kind of experiment: Tri-Methyl Histone H3 (Lys 27) Sandwich ELISA in Pfeiffer cells: inhibition of PRC2-mediated histone H3 methylation. The conditions noted are these: Inhibition of EZH2-mediated histone H3 trimethylation, Pfeiffer cells (EZH2 A677G), 96 hours incubation. It counts as cell-based, human. The method in brief: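 Pfeiffer DLBCL cells (EZH2 A677G mutant) treated with 3-fold serial dilutions, 1µM to 0.15 nM final, for 96 hours at 37°C. Acid (0.4M HCl) histone extracts, neutralized, assayed by H3K27me3 sandwich ELISA with HRP/TMB read at 450 nm.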
(In an ELISA, binding on a coated surface is turned into a signal by an enzyme label.)

purified human, His-tagged PRC2 complex, sequence (Q15910 whole entry): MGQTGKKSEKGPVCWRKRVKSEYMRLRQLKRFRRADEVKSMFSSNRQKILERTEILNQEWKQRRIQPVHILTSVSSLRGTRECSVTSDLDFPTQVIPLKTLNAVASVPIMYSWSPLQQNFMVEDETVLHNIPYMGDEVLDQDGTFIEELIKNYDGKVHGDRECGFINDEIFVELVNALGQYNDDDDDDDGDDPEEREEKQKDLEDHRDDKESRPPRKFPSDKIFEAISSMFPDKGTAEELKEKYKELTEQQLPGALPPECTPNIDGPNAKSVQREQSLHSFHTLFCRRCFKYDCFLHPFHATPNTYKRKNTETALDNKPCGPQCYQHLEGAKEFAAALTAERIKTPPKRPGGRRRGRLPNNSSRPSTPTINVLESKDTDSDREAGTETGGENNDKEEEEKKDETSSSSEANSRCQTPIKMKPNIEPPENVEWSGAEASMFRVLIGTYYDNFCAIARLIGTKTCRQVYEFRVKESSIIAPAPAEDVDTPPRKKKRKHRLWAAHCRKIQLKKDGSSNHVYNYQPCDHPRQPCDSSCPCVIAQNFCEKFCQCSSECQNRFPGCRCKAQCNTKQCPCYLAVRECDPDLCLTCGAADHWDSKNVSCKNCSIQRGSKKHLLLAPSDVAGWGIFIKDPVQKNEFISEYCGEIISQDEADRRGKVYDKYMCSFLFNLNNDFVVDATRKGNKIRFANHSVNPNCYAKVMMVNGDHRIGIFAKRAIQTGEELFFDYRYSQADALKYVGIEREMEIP
purified human, His-tagged PRC2 complex, sequence (O75530 whole entry): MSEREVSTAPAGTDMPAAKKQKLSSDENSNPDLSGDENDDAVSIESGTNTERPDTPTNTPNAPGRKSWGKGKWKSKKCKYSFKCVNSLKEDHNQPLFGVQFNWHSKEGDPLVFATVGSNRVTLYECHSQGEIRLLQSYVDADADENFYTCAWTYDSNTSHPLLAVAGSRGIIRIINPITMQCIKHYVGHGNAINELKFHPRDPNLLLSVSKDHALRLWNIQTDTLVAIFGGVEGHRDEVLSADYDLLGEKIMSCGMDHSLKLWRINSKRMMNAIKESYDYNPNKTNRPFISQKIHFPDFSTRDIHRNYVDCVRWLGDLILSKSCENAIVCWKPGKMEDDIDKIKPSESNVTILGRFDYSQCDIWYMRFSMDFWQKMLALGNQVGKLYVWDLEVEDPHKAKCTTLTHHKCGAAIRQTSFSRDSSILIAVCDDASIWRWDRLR
purified human, His-tagged PRC2 complex, sequence (Q15022 whole entry partner): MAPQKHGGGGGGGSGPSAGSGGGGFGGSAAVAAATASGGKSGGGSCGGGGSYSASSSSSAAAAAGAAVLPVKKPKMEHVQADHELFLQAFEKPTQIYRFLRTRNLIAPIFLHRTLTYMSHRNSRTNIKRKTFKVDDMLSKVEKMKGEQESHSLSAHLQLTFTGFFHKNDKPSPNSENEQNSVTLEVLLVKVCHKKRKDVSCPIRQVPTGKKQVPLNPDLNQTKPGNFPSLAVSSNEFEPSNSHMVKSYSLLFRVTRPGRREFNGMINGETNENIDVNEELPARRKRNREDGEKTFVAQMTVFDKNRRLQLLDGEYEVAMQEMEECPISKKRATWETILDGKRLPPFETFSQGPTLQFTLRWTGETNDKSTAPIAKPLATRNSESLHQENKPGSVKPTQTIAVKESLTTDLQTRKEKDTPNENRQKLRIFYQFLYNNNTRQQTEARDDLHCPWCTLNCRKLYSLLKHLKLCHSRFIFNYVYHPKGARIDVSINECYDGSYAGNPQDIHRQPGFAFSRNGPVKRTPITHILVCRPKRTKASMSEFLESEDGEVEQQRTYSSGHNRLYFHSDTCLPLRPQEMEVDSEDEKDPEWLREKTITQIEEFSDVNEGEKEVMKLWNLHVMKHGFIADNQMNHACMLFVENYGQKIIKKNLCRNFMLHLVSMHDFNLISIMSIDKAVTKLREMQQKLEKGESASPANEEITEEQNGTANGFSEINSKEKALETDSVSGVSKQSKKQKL
purified human, His-tagged PRC2 complex, sequence (Q6ZN18 whole entry partner): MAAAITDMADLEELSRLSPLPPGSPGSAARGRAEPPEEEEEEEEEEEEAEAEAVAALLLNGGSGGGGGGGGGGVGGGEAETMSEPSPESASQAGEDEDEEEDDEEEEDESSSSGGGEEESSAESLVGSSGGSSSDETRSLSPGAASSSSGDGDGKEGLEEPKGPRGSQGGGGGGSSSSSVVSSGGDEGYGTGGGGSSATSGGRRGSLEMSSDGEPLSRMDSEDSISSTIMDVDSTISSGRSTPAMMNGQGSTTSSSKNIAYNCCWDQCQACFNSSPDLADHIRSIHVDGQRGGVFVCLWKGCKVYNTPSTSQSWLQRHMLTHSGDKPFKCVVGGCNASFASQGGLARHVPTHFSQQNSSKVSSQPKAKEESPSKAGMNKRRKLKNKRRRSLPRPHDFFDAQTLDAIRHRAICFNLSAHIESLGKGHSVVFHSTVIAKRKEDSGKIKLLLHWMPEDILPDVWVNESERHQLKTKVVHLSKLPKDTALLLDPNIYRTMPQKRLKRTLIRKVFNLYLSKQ
purified human, His-tagged PRC2 complex, sequence (Q09028 whole entry partner): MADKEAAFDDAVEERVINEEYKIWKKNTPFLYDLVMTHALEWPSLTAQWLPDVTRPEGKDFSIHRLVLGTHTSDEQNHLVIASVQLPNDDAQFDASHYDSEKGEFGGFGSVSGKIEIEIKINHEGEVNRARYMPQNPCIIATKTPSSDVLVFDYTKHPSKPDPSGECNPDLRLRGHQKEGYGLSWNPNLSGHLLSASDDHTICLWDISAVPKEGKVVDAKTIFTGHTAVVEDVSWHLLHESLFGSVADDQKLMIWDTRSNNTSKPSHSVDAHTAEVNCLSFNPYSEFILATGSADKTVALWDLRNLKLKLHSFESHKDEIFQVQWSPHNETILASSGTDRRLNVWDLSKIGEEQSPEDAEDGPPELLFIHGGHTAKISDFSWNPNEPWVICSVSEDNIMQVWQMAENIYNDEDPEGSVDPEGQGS

What is called IC50 is the midpoint of a concentration-inhibition curve. A high value points to lower potency. For `CNCc1ccc(-c2cnc(NCc3c(F)ccc4c3CCO4)n3cc(C#N)nc23)cc1` [Example 185, 5-(((5-fluoro-2,3-dihydrobenzofuran-4-yl)methyl)amino)-8-(4-((methylamino)methyl)phenyl)imidazo[1,2-c]pyrimidine-2-carbonitrile], the figures for the IC50 in assay [1], in assay [2] (Homo sapiens) and in assay [3] (Homo sapiens) were less than 100 nM, no more than 250 nM and no more than 100 nM, respectively.
The matching figures for `CN1CCCC1c1ccc(-c2cnc(NCc3c(F)ccc4c3CCO4)n3cc(C#N)nc23)cc1` (stereo not drawn) [Example 160, 5-(((5-fluoro-2,3-dihydrobenzofuran-4-yl)methyl)amino)-8-(4-(1-methylpyrrolidin-2-yl)phenyl)imidazo[1,2-c]pyrimidine-2-carbonitrile]: less than 100 nM, no more than 250 nM and no more than 100 nM.
`CN1CCc2cc(-c3cnc(NCc4c(F)ccc5c4CCO5)n4cc(C#N)nc34)ccc2C1=O` [Example 168, 5-(((5-fluoro-2,3-dihydrobenzofuran-4-yl)methyl)amino)-8-(2-methyl-1-oxo-1,2,3,4-tetrahydroisoquinolin-6-yl)imidazo[1,2-c]pyrimidine-2-carbonitrile]: the half-maximal inhibitory concentration (IC50) in assay [1] was less than 100 nM; in assay [2] (Homo sapiens) it was no more than 250 nM; in assay [3] (Homo sapiens) it was 100 to 500 nM.
For the compound `Cc1cc(C(=O)N(C)C)ncc1-c1cnc(NCc2c(F)ccc3c2CCO3)n2cc(C#N)nc12` [Example 76, 5-(2-cyano-5-(((5-fluoro-2,3-dihydrobenzofuran-4-yl)methyl)amino)imidazo[1,2-c]pyrimidin-8-yl)-N,N,4-trimethylpicolinamide], the half-maximal inhibitory concentration (IC50) in assay [1] is less than 100 nM; in assay [2] (Homo sapiens) it was no more than 250 nM; in assay [3] (Homo sapiens) it was no more than 100 nM.
Consider `N#Cc1cn2c(NCc3c(F)ccc4c3CCO4)ncc(-c3ccc4c(c3)CNC4)c2n1` [Example 205, 5-(((5-fluoro-2,3-dihydrobenzofuran-4-yl)methyl)amino)-8-(isoindolin-5-yl)imidazo[1,2-c]pyrimidine-2-carbonitrile], for which the IC50 in assay [1] was 100 to 500 nM; in assay [2] (Homo sapiens), no more than 250 nM; in assay [3] (Homo sapiens) it was no more than 100 nM.
For `Cn1cccc(-c2cnc(NCc3c(F)ccc4c3CCO4)n3cc(C#N)nc23)c1=O` [Example 156, 5-(((5-fluoro-2,3-dihydrobenzofuran-4-yl)methyl)amino)-8-(1-methyl-2-oxo-1,2-dihydropyridin-3-yl)imidazo[1,2-c]pyrimidine-2-carbonitrile], in that order: 100 to 500 nM, greater than 500 nM and greater than 500 nM.
For `N#Cc1cn2c(NCc3c(F)ccc4c3CCO4)ncc(-c3ccc4c(c3)CCNC4)c2n1` [Example 203, 5-(((5-fluoro-2,3-dihydrobenzofuran-4-yl)methyl)amino)-8-(1,2,3,4-tetrahydroisoquinolin-6-yl)imidazo[1,2-c]pyrimidine-2-carbonitrile], in that order: 100 to 500 nM, 250 to 500 nM and 100 to 500 nM.
With `CN(C)c1ccc(-c2cnc(NCc3c(F)ccc4c3CCO4)n3cc(C#N)nc23)cn1` [Example 60, 8-(6-(dimethylamino)pyridin-3-yl)-5-(((5-fluoro-2,3-dihydrobenzofuran-4-yl)methyl)amino)imidazo[1,2-c]pyrimidine-2-carbonitrile], the IC50 is 100 to 500 nM in assay [1], 250 to 500 nM in assay [2] (Homo sapiens) and greater than 500 nM in assay [3] (Homo sapiens).
Turning to `Cc1ccc(-c2cnc(NCc3c(F)ccc4c3CCO4)n3cc(C#N)nc23)c(C)c1` [Example 192, 8-(2,4-dimethylphenyl)-5-(((5-fluoro-2,3-dihydrobenzofuran-4-yl)methyl)amino)imidazo[1,2-c]pyrimidine-2-carbonitrile], the IC50 in assay [1], in assay [2] (Homo sapiens) and in assay [3] (Homo sapiens) was greater than 500 nM throughout.
As to `Cc1ccc(-c2cnc(NCc3c(F)ccc4c3CCO4)n3cc(C#N)nc23)c(C)n1` [Example 67, 8-(2,6-dimethylpyridin-3-yl)-5-(((5-fluoro-2,3-dihydrobenzofuran-4-yl)methyl)amino)imidazo[1,2-c]pyrimidine-2-carbonitrile], the figures for the IC50 in assay [1], in assay [2] (Homo sapiens) and in assay [3] (Homo sapiens) were less than 100 nM, no more than 250 nM and no more than 100 nM, respectively.
In the case of `Cc1cc(C2CCCN2)ccc1-c1cnc(NCc2c(F)ccc3c2CCO3)n2cc(C#N)nc12` (single isomer, unassigned) [Example 214, 5-(((5-fluoro-2,3-dihydrobenzofuran-4-yl)methyl)amino)-8-(2-methyl-4-(pyrrolidin-2-yl)phenyl)imidazo[1,2-c]pyrimidine-2-carbonitrile], the IC50 was less than 100 nM in assay [1], no more than 250 nM in assay [2] and 100 to 500 nM in assay [3].
As to `CC(O)Cn1cc(-c2cnc(NCc3c(F)ccc4c3CCO4)n3cc(C#N)nc23)cn1` (stereo not drawn) [Example 179, 5-(((5-fluoro-2,3-dihydrobenzofuran-4-yl)methyl)amino)-8-(1-(2-hydroxypropyl)-1H-pyrazol-4-yl)imidazo[1,2-c]pyrimidine-2-carbonitrile], the IC50 in assay [1] is less than 100 nM; in assay [2] (Homo sapiens), greater than 500 nM; in assay [3] (Homo sapiens), 100 to 500 nM.
For `N#Cc1cn2c(NCc3c(F)ccc4c3CCO4)ncc(-c3ccc(C4CCCN4)cc3)c2n1` (stereo not drawn) [Example 204, 5-(((5-fluoro-2,3-dihydrobenzofuran-4-yl)methyl)amino)-8-(4-(pyrrolidin-2-yl)phenyl)imidazo[1,2-c]pyrimidine-2-carbonitrile], in that order: 100 to 500 nM, no more than 250 nM and no more than 100 nM.
Regarding `CN(C)C1(c2ccc(-c3cnc(NCc4c(F)ccc5c4CCO5)n4cc(C#N)nc34)cc2)CC1` [Example 171, 8-(4-(1-(dimethylamino)cyclopropyl)phenyl)-5-(((5-fluoro-2,3-dihydrobenzofuran-4-yl)methyl)amino)imidazo[1,2-c]pyrimidine-2-carbonitrile], the figures for the half-inhibitory concentration (IC50) in assay [1], in assay [2] (Homo sapiens) and in assay [3] (Homo sapiens) were less than 100 nM, no more than 250 nM and 100 to 500 nM, respectively.
On to `CNC(=O)c1cc(-c2cnc(NCc3c(F)ccc4c3CCO4)n3cc(C#N)nc23)n(C)n1` [Example 208, 5-(2-cyano-5-(((5-fluoro-2,3-dihydrobenzofuran-4-yl)methyl)amino)imidazo[1,2-c]pyrimidin-8-yl)-N, 1-dimethyl-1H-pyrazole-3-carboxamide], for which the concentration for half-maximal inhibition (IC50) in assay [1] is less than 100 nM; in assay [2] (Homo sapiens), no more than 250 nM; in assay [3] (Homo sapiens), 100 to 500 nM.
As to `CN(C)Cc1cc(F)c(-c2cnc(NCc3c(F)ccc4c3CCO4)n3cc(C#N)nc23)cc1F` [Example 39, 8-(4-((dimethylamino)methyl)-2,5-difluorophenyl)-5-(((5-fluoro-2,3-dihydrobenzofuran-4-yl)methyl)amino)imidazo[1,2-c]pyrimidine-2-carbonitrile], the IC50 in assay [1] was less than 100 nM; in assay [2] (Homo sapiens), no more than 250 nM; in assay [3] (Homo sapiens), no more than 100 nM.
For `Cc1c(-c2cnc(NCc3c(F)ccc4c3CCO4)n3cc(C#N)nc23)ccc(CN(C)C)c1F` [Example 85, 8-(4-((dimethylamino)methyl)-3-fluoro-2-methylphenyl)-5-(((5-fluoro-2,3-dihydrobenzofuran-4-yl)methyl)amino)imidazo[1,2-c]pyrimidine-2-carbonitrile], in that order: less than 100 nM, no more than 250 nM and no more than 100 nM.
On to `COCCOc1ccc(-c2cnc(NCc3c(F)ccc4c3CCO4)n3cc(C#N)nc23)cc1` [Example 161, 5-(((5-fluoro-2,3-dihydrobenzofuran-4-yl)methyl)amino)-8-(4-(2-methoxyethoxy)phenyl)imidazo[1,2-c]pyrimidine-2-carbonitrile], for which the IC50 is less than 100 nM in assay [1], no more than 250 nM in assay [2] (Homo sapiens) and 100 to 500 nM in assay [3] (Homo sapiens).
The matching figures for `N#Cc1cn2c(NCc3c(F)ccc4c3CCO4)ncc(-c3ccc(CN4CCCC4)cc3)c2n1` [Example 74, 5-(((5-fluoro-2,3-dihydrobenzofuran-4-yl)methyl)amino)-8-(4-(pyrrolidin-1 - ylmethyl)phenyl)imidazo[1,2-c]pyrimidine-2-carbonitrile]: less than 100 nM, no more than 250 nM and no more than 100 nM.
The matching figures for `N#Cc1cn2c(NCc3c(F)ccc4c3CCO4)ncc(-c3ccc4c(c3)CCNC4=O)c2n1` [Example 172, 5-(((5-fluoro-2,3-dihydrobenzofuran-4-yl)methyl)amino)-8-(1-oxo-1,2,3,4-tetrahydroisoquinolin-6-yl)imidazo[1,2-c]pyrimidine-2-carbonitrile]: less than 100 nM, 250 to 500 nM and 100 to 500 nM.
As for `Cn1nccc(-c2cnc(NCc3c(F)ccc4c3CCO4)n3cc(C#N)nc23)c1=O` [Example 194, 5-(((5-fluoro-2,3-dihydrobenzofuran-4-yl)methyl)amino)-8-(2-methyl-3-oxo-2,3-dihydropyridazin-4-yl)imidazo[1,2-c]pyrimidine-2-carbonitrile], the IC50 was 100 to 500 nM in assay [1], no more than 250 nM in assay [2] (Homo sapiens) and 100 to 500 nM in assay [3] (Homo sapiens).
